Legend:
β-carotene fading test = assay type: biochemical; settings: 20 μM in reaction liquid, 60° C. for 60 minutes, absorbance 470 nm; average ± SD of three runs
Experimental: β-carotene will fade due to the reaction of linoleic acid peroxide, which is produced by the autoxidation of linoleic acid, with a double bond in β-carotene. This phenomenon was utilized so as to determine the antioxidant activity of each of Compounds 1 to 4 and the like. That is, first of all, 2 ml of a 200 mg/ml solution of Tween-40 in chloroform, 0.4 ml of a 100 mg/ml solution of linoleic acid in chloroform, and 3 ml of a 0.1 mg/ml solution of β-carotene in chloroform were mixed, and thereafter the solvent was removed by using a nitrogen gas. Subsequently, 100 ml of distilled water was added thereto, and adequately stirred to obtain an emulsion. To 3 ml of this emulsion, ethanol was added to completely dissolve the solute in the solvent. Thereafter, each of Compounds 1 to 4 was dissolved in ethanol so as to prepare a sample solution having a concentration of 1.2 mM. 50 μl of the sample solution was mixed with the above emulsion wherein the solute had been completely dissolved so as to prepare a reaction liquid (or a sample reaction liquid). Then the concentration of each of Compounds 1 to 4 in the reaction liquid was 20 μM. The reaction liquid was incubated at 60° C. for 60 minutes. Then the absorbance of each of the reaction liquid before the incubation and the reaction liquid after the incubation was determined at 470 nm. Furthermore, BHT, α-tocopherol, or eriodictyol was used in place of Compounds 1 to 4 so as to determine the absorbance of the reaction liquid before and after incubation according to a similar procedure to the above-mentioned one. In addition, as a control, a reaction liquid (or a control reaction liquid) wherein no sample solution was contained was prepared so as to determine the absorbance of the reaction liquid before and after incubation according to a similar procedure to the above-mentioned one. The antioxidant activity (%) of each of the materials was calculated using the following calculation formula 2. Incidentally, each of values shown in Table 1 is the average value and standard deviation of values obtained from three runs. (Antioxidant Activity)=[{(Fading Rate of Control)−(Fading Rate of Sample Solution)}/(Fading Rate of Control)]×100 Calculation Formula 2
It should be noted that in the calculation formula 2, “Fading Rate of Control” is the natural logarithm of a value which is acquired by dividing the absorbance of the control reaction liquid before incubation by the absorbance of the control reaction liquid after incubation and further by dividing the resultant value by 60; and “Fading Rate of Sample Solution” is the natural logarithm of a value which is acquired by dividing the absorbance of the sample reaction liquid before incubation by the absorbance of the sample reaction liquid after incubation and further by dividing the resultant value by 60.

[1] = test system: breast cancer cells (MCF-7); assay: Breast cancer cell proliferation-inhibition test; assay type: cell-based; settings: 0.1 nM estradiol, Control 1 at 0 day = 1
Experimental: When breast cancer cells (MCF-7) are cultured, if estradiol (or 17β-estradiol) having a cell-proliferation accelerating action, is added thereto, the proliferation of breast cancer cells can be simply promoted in a short period. This phenomenon was utilized so as to examine the effect of each of Compounds 1 to 4 and the like on the proliferation inhibition of breast cancer cells. That is, first of all, each of Compounds 1 to 4 was diluted with dimethyl sulfoxide to prepare a sample solution. Thereafter, 2×10^3 of MCF-7 were inoculated in each well of a 96-well plate, and estradiol and the sample solution were added thereto after 4 hours. Estradiol was added to each compartment so that the final concentration of estradiol can be 0.1 nM, and the final concentration of the sample solution can be 0.2 μM, 2 μM, or 20 μM. After incubation for a predetermined period of time (three or five days), each of the media was replaced with a new medium, and an enzyme solution (Cell counting Kit-8: Wako) was added to the new medium in an amount of 10% of the new medium. After maintained the medium in an incubator at a temperature of 37° C. for two hours, the absorbance of the medium was determined at a wavelength of 450 nm (a reference wave length of 630 nm) by means of a spectrophotometer so as to quantify the number of living cells in each compartment.
As for the compartment whose incubation period is predetermined to be five days, on the third day of the incubation, the medium was replaced with a new medium, and thereafter, estradiol and a sample solution were added to the new medium, and the incubation was continued till fifth day. As for the compartment whose incubation period is predetermined to be 0 day, at four hours after the cells were inoculated, an enzyme solution was added to the medium. The medium was maintained in an incubator at a temperature of 37° C. for two hours, followed by determining the absorbance.
Instead of Compounds 1 to 4, eriodictyol was used to determine the absorbance according to a similar procedure to the above-mentioned one, and thus the number of living cells in each compartment was quantified. Furthermore, Control 1 to which neither estradiol nor a sample had been added was used to determine the absorbance according to a similar procedure to the above-mentioned one, and thus the number of living cells in each compartment was quantified, while Control 2 to which no sample had been added was used to determine the absorbance according to a similar procedure to the above-mentioned one, and thus the number of living cells in each compartment was quantified.
When it is assumed that the number of living cells of Control 1 as quantified after a zero-day incubation period is 1, the relative value of living cells as quantified in each of the runs mentioned above is shown in Table 2. Incidentally, each of values shown in Table 2 is the average value and standard deviation of values obtained from eight wells.

[2] = DPPH radical scavenging activity test; assay type: biochemical; settings: 25 μM sample solution in ethanol, 1 h in dark, absorbance 517 nm; average ± SD of three runs
Experimental: DPPH (α,α-diphenyl-β-picrylhydradil) is a purple stable radical having a maximum absorption at 517 nm, which is converted into colorless hydrazine by gaining hydrogen. This color reaction was utilized so as to determine the radical scavenging activity of each of Compounds 1 to 4 and the like. That is, each of Compounds 1 to 4 was dissolved in ethanol to prepare 3 ml of a sample solution having a concentration of 25 μM. Thereafter, to each of the resultant sample solutions, 0.75 ml of a 0.5 mM DPPH solution (whose solvent was ethanol) was added and stirred, and reacted in a dark place for one hour, followed by the determination of an absorbance at 517 nm. Furthermore, in place of Compounds 1 to 4, BHT (butylated hydroxytoluene), α-tocopherol or eriodictyol was used so as to determine an absorbance according to a similar procedure to the above. Besides, instead of the above sample solutions, ethanol was used as a control so as to determine an absorbance according to a similar procedure to the above. Then the radical scavenging activity (%) of each of the materials was calculated using the following calculation formula 1. Incidentally, each of values shown in Table 1 is the average value and standard deviation of values obtained from three runs. (Radical Scavenging Activity)=[{(Absorbance of Control)−(Absorbance of Sample Solution)}/(Absorbance of Control)]×100 Calculation Formula 1

O=C1C[C@@H](c2ccc(O)c(O)c2)Oc2cc(O)cc(O)c21 [Eriodictyol, eriodictyol, reference compound]
Antioxidant Activity (%) from β-carotene Fading Test (β-carotene fading test): 81.47 ± 2.48% | Relative Value of Living Cells ([1]; 0.2 μM sample, after 3-days incubation): 2.88 ± 0.22 | Relative Value of Living Cells ([1]; 0.2 μM sample, after 5-days incubation): 7.33 ± 0.60 | Relative Value of Living Cells ([1]; 0.2 μM sample, on 0-day incubation, mean ± SD of eight wells): 0.96 ± 0.04 | Relative Value of Living Cells ([1]; 2 μM sample, after 3-days incubation): 2.90 ± 0.13 | Relative Value of Living Cells ([1]; 2 μM sample, after 5-days incubation): 7.16 ± 0.36 | Relative Value of Living Cells ([1]; 2 μM sample, on 0-day incubation): 0.98 ± 0.07 | Relative Value of Living Cells ([1]; 20 μM sample, after 3-days incubation): 2.54 ± 0.30 | Relative Value of Living Cells ([1]; 20 μM sample, after 5-days incubation): 5.13 ± 0.62 | Relative Value of Living Cells ([1]; 20 μM sample, on 0-day incubation): 1.01 ± 0.05 | Radical Scavenging Activity (%) from DPPH Radical Scavenging Activity Test [2]: 68.82 ± 1.12%

Cc1cc(C(C)(C)C)c(O)c(C(C)(C)C)c1 [BHT, butylated hydroxytoluene, reference compound]
Antioxidant Activity (%) from β-carotene Fading Test (β-carotene fading test): 85.02 ± 1.89% | Radical Scavenging Activity (%) from DPPH Radical Scavenging Activity Test [2]: 28.51 ± 7.48%

Cc1c(C)c2c(c(C)c1O)CC[C@@](C)(CCC[C@H](C)CCC[C@H](C)CCCC(C)C)O2 [α-tocopherol, reference compound]
Antioxidant Activity (%) from β-carotene Fading Test (β-carotene fading test): 93.00 ± 0.73% | Radical Scavenging Activity (%) from DPPH Radical Scavenging Activity Test [2]: 58.87 ± 1.24%

— patent US7829591B2, “Flavanone compound and uses thereof” (Pokka Corporation, priority 2003, dated 2010)
